Laboratory results published in PMC12136037, “Type II kinase inhibitors that target Parkinson’s disease–associated LRRK2” (Science Advances, 2025).
Several values for one entry are separate records, joined by “and”; a condition that tells them apart may be missing. Identical values can stand only once.

Key:
[1] = biological target: T1, ~100 representative kinases (Homo sapiens, UniProt P22607); experiment: DSF 100 kinase selectivity screen; format: binding; conditions: protein FGFR3; average of three replicates;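 also: compound tested at 20 µM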
T1 construct: Recombinant protein kinase domains with a concentration of 2 μM
T1 sequence (P22607 23-806): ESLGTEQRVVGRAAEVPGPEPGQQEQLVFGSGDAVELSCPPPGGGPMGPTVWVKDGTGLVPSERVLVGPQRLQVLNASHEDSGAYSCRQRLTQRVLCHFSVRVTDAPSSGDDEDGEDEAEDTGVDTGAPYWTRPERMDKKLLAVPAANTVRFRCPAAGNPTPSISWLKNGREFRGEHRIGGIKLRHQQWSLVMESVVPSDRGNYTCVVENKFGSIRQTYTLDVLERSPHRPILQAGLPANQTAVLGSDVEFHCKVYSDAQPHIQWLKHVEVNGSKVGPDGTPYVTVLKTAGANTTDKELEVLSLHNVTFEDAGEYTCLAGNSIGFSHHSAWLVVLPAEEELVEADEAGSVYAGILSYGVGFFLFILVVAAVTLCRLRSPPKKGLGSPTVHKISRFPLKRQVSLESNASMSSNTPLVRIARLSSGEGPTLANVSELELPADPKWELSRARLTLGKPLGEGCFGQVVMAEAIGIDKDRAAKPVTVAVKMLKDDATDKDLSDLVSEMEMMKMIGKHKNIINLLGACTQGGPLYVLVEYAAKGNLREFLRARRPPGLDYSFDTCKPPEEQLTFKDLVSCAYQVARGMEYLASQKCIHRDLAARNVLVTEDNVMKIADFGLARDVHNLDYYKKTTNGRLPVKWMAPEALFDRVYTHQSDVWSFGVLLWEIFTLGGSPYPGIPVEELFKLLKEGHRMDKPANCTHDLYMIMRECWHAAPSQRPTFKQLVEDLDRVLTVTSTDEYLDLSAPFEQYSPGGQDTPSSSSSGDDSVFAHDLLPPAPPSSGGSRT
Method in brief: (§1)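 Each kinase domain, at 2 μM, is mixed with 20 μM test compound and SYPRO Orange in Hepes (20 mM, pH 7.5) with 500 mM NaCl. Temperature is then raised at 3°C/min and fluorescence-monitored unfolding yields the melting temperature change, ΔTm in degrees Celsius.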

[2] = biological target: T2, ~100 representative kinases (Homo sapiens, UniProt Q96GD4); experiment: DSF 100 kinase selectivity screen; format: binding; conditions: Protein AURKB; average of three replicates;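 also: compound tested at 20 µM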
T2 construct: Recombinant protein kinase domains with a concentration of 2 μM
T2 sequence (Q96GD4 whole entry, the tested form may be a part): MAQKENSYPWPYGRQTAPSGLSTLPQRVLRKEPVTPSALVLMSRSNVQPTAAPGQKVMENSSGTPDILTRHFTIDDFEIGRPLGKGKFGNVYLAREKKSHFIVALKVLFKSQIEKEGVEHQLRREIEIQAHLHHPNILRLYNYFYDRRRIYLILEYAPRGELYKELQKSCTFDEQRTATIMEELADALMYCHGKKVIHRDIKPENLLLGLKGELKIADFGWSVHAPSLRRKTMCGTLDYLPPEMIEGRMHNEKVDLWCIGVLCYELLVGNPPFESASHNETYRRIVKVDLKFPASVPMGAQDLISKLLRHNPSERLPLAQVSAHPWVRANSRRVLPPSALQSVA
Method in brief: as §1

LRRK2^RCKW = biological target: T3, LRRK2^RCKW (Homo sapiens, UniProt Q5S007); experiment: Biochemical LRRK2 activity assay (PhosphoSense, AssayQuant SOX peptide AQT0615); conditions: for IC50: LRRK2^RCKW kinase activity, in vitro; for normalized response (LRRK2 activity): normalized to 0% (no kinase) and 100% (no inhibitor) control, two singlicate columns per compound
T3 construct: LRRK2 R1327 to E2527; His6-Z-tag (TEV cleavable) (N, cleaved yes); host or cells: Sf9 insect cells (baculovirus)
T3 sequence (Q5S007 1327-2527): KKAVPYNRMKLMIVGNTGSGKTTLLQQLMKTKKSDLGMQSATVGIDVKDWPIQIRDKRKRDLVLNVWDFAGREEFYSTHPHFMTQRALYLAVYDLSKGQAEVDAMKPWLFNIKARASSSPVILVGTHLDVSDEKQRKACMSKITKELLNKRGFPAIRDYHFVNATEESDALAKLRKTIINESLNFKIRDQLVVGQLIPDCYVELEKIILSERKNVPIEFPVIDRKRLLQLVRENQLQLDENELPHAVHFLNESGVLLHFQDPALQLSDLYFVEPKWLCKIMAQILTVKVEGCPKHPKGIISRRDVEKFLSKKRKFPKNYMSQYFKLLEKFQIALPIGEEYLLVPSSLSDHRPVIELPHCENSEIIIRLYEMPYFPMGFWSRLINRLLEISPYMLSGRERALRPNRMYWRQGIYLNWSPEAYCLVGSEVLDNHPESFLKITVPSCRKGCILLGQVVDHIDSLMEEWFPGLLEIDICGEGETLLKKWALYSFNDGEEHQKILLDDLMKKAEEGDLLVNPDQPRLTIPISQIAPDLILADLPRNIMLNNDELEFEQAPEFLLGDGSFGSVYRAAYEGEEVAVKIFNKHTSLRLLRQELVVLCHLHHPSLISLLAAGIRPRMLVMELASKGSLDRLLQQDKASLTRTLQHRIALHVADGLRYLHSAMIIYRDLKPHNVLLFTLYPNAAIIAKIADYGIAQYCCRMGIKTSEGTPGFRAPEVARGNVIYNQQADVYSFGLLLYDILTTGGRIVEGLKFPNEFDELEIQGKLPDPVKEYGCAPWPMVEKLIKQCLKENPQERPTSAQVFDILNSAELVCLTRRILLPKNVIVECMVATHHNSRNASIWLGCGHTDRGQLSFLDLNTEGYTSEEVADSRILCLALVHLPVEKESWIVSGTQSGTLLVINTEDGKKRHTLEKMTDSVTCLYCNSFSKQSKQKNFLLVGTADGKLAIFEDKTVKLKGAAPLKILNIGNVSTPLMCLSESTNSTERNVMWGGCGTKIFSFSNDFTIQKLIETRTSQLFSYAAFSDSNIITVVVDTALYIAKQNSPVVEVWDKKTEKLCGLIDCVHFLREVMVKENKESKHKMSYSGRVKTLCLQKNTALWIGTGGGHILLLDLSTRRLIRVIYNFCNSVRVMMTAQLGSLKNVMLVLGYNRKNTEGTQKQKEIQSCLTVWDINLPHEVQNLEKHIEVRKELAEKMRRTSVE
Method in brief: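 Controls lacked protein and compound (0%) or compound only (100%). IC50 derived by nonlinear regression of normalized response versus log[inhibitor].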

SMILES | dTm [1] [K] | dTm [2] [K] | IC50 (LRRK2^RCKW) [nM] | normalized response (LRRK2 activity) (LRRK2^RCKW; log[inhibitor(mol)] -4.82391) | normalized response (LRRK2 activity) (LRRK2^RCKW; log[inhibitor(mol)] -5.12494) | normalized response (LRRK2 activity) (LRRK2^RCKW; log[inhibitor(mol)] -5.60206) | normalized response (LRRK2 activity) (LRRK2^RCKW; log[inhibitor(mol)] -6.30103) | normalized response (LRRK2 activity) (LRRK2^RCKW; log[inhibitor(mol)] -6.90309) | normalized response (LRRK2 activity) (LRRK2^RCKW; log[inhibitor(mol)] -7.30103) | normalized response (LRRK2 activity) (LRRK2^RCKW; log[inhibitor(mol)] -7.60206) | normalized response (LRRK2 activity) (LRRK2^RCKW; log[inhibitor(mol)] -8.09691) | normalized response (LRRK2 activity) (LRRK2^RCKW; log[inhibitor(mol)] -8.61979) | normalized response (LRRK2 activity) (LRRK2^RCKW; log[inhibitor(mol)] -9.09691) | normalized response (LRRK2 activity) (LRRK2^RCKW; log[inhibitor(mol)] -9.39794)
CCNc1nc(Nc2cc(F)c(C(=O)N3CCOCC3)cc2OC)ncc1C(F)(F)F [GNE-7915] | 1.40 | -1.42 | – | – | – | – | – | – | – | – | – | – | – | –
CC(C)(C)c1cccc(NC(=O)C2(C(=O)Nc3cccc(-c4c[nH]c5ncnc(N6CCOCC6)c45)c3)CC2)c1 [Compound 22] | 4.54 | 1.96 | 886 ± 63 | 10.3797% and 6.914% | 10.6927% and 10.684% | 26.6669% and 27.2452% | 59.6653% and 62.0504% | 86.7302% and 90.6112% | 94.29% and 100.35% | 102.254% and 104.876% | 100.313% and 102.032% | 105% and 108.964% | 105.539% and 102.73% | 104.285% and 104.996%
O=C(Nc1cc(F)cc(Br)c1)C1(C(=O)Nc2cccc(-c3c[nH]c4ncnc(N5CCOCC5)c34)c2)CC1 [Compound 27] | 2.07 | 2.17 | 1960 ± 652 | 9.9531% and 0.1682% | 15.329% and 15.4402% | 51.4182% and 54.957% | 74.2368% and 85.6074% | 93.8115% and 94.6865% | 93.6955% and 101.281% | 91.0994% and 95.9483% | 92.7092% and 88.0778% | 94.7784% and 93.0186% | 131.133% and 93.2265% | 94.4883% and 98.7958%
Cc1ccc(C(=O)Nc2ccc(CN3CCN(C)CC3)c(C(F)(F)F)c2)cc1C#Cc1cnc2[nH]ncc2c1 [GZD-824, reference compound] | 14.11 | 1.02 | – | 37.9506% and 22.443% | 2.902% and -0.761% | – | -12.6856% and -11.6517% | -14.8328% and -12.1996% | -10.7195% and -10.9051% | -2.449% and -0.1425% | 77.0511% and 75.7389% | 100.887% and 96.9327% | 102.124% and 93.9328% | 100.847% and 103.781%
Cc1ccc(C(=O)Nc2ccc(CN3CCN(C)CC3)c(C(F)(F)F)c2)cc1C#Cc1cnc2cccnn12 [Ponatinib, reference compound] | 14.03 | 0.49 | – | – | – | – | 56.5539% and 57.6737% | 39.5492% and 29.1129% | 59.9414% and 56.1669% | 77.794% and 52.662% | 99.8669% and 100.13% | 102.911% | 103.335% and 101.393% | 103.789% and 105.568%
O=C(Nc1cccc(-c2c[nH]c3ncnc(N4CCOCC4)c23)c1)C1(C(=O)Nc2ccc(F)c(Br)c2)CC1 [Compound 19] | 4.74 | 5.64 | 264 ± 19 | 3.161% and 1.4% | 3.805% and 3.935% | 9.506% and 13.5388% | 29.4238% and 33.7614% | 67.8273% and 68.8623% | 84.3755% and 91.2634% | 88.4282% and 94.2182% | 94.3856% and 94.7313% | 99.7343% and 99.0059% | 100.123% and 100.393% | 97.0165% and 71.9323%
Cn1cc(-c2c[nH]c3ncnc(N4CCOCC4)c23)cc1C#N [PFE-360] | 2.13 | 2.36 | – | – | – | – | – | – | – | – | – | – | – | –
CCSc1nc(NC)c2c(-c3cccc(NC(=O)Nc4cc(C(C)(C)C)nn4-c4ccc(C)cc4)c3)c[nH]c2n1 [Compound 32] | – | 0.28 | 296 ± 39 | – | -7.459% and -2.016% | 19.5756% and 16.293% | 31.5753% and 35.852% | 72.0233% and 73.3531% | 83.8241% and 86.8594% | 89.687% and 98.7972% | 90.4381% and 87.8004% | 96.4865% and 91.0964% | 94.4983% and 98.9209% | 96.9901% and 60.5361%
Cc1ccc(-n2nc(C(C)(C)C)cc2NC(=O)Nc2cccc(-c3c[nH]c4nc(Cl)nc(N5CCOCC5)c34)c2)cc1 [Compound 30] | – | -0.56 | 135 ± 2 | – | -8.095% and -6.809% | 75.5755% and 70.6669% | 8.742% and 11.7467% | 50.7191% and 51.183% | 75.6682% and 82.0657% | 86.9301% and 90.6015% | 94.0388% and 92.0065% | 101.276% and 93.5219% | 104.187% and 96.8267% | 100.869% and 63.9823%
C[C@@H]1CN(c2cc(-c3n[nH]c4ccc(OC5(C)CC5)cc34)ncn2)C[C@H](C)O1 [MLi2] | 0.31 | -0.83 | – | – | – | – | – | – | – | – | – | – | – | –
COc1cc(C(=O)N2CCOCC2)c(F)cc1Nc1nc(N(C)C)c2c(Cl)c[nH]c2n1 [Compound 36] | – | 1.54 | 4.96 ± 0.11 | – | -4.747% and -10.7141% | -11.8877% and -7.237% | -22.7354% and -19.8398% | -16.5877% and -9.211% | -3.623% and 0.9398% | 12.0233% and 5.13% | 39.1206% and 42.4988% | 81.2335% and 75.689% | 74.4661% and 78.5518% | 100.642% and 97.3515%
